# Reference: paper PMC10101016, “The Photoactive Photosynthetic Reaction Center of a Rhodobacter sphaeroides Mutant Lacking 3-Vinyl (Bacterio)Chlorophyllide a Hydratase Contains 3-Vinyl Bacteriochlorophyll a” (Microbiology Spectrum, 2023)
# Read-outs that look alike come from different tables or passages of the source.
# Target: T1, reaction center (WT-RC, V-RC) (Cereibacter sphaeroides, UniProt Q3J1A5+Q3J1A6)
# T1 construct: gene pufL
compound,measurement,setting,value
C=Cc1c(C)c2cc3nc(c4c5[nH]c(cc6nc(cc1[nH]2)[C@H](C)[C@H]6CC)c(C)c5C(=O)[C@@H]4C(=O)OC)[C@@H](CCC(=O)OC/C=C(\C)CCC[C@H](C)CCC[C@H](C)CCCC(C)C)[C@@H]3C [3V-Bpheo a],"pigment extraction and HPLC of purified RC, absorption spectrum","V-RC from BFcfh-puhA, H-sites","The V-RC was estimated to contain four 3V-Bchl a molecules, two 3V-Bpheo a molecules"
COC(C)(C)C/C=C/C(C)=C/C=C/C(C)=C/C=C/C(C)=C/C=C/C=C(C)/C=C/C=C(\C)CC/C=C(\C)CCC=C(C)C [SE],"pigment extraction and HPLC of purified RC, absorption spectrum","WT-RC and V-RC, photoheterotrophically grown cells","except for the presence of spheroidene (SE), which reflects the culture conditions"
COC(C)(C)C(=O)/C=C/C(C)=C/C=C/C(C)=C/C=C/C(C)=C/C=C/C=C(C)/C=C/C=C(\C)CC/C=C(\C)CCC=C(C)C [SO],"pigment extraction and HPLC of purified RC, absorption spectrum","WT-RC and V-RC, semiaerobically grown cells","two Bpheo a molecules, and one spheroidenone (SO) molecule"
